US7554012B2, “Plants and plant cells exhibiting resistance to AMPA, and methods for making the same” (priority 1998, dated 2009)
Where “and” joins values, the source holds several entries; their conditions need not be identical. Identical values can stand only once.

Columns and labels:
Wheat immature embryos = experiment: Wheat embryo germination assay; type: in vivo; conditions: for Germinating root length / Germinating shoot length: ten days
Description: Wheat immature embryos were exposed to different concentrations of AMPA and N-acetyl-AMPA in a wheat embryo germination assay. MMSO base media was prepared containing 40 grams per liter maltose, 2 grams per liter GELRITE™, MS salts, and vitamins. Salts, vitamins, and maltose were dissolved in 3500 ml water and the pH was adjusted to 5.8. 500 ml was dispensed into a separate bottle along with 1 gram of GELRITE™ and autoclaved for 17 minutes. After the medium had cooled to about 45° C., AMPA or N-acetyl-AMPA was added to a defined concentration. The mixture was poured into six square Sundae cups under sterile conditions and allowed to solidify.
Immature wheat embryos were isolated from twenty day old seedlings (after anther formation) and inoculated into each MMSO media. Each Sundae cup contained nine immature embryo's. Three separate plates were used for each concentration of AMPA (0, 0.1, 0.15, 0.2, 0.25, 0.3, and 1.0 mM) or N-acetyl-AMPA (0, 0.1, 0.3, 1.0, and 3.0 mM). Sundae cups were incubated for ten days and the length of roots and shoots were determined and compared.

[1] = test system: Achromobacter sp. strain LBAA; experiment: Glyphosate degradation pathway in resting cells
Description: The glyphosate degradation pathway was characterized in resting cells of glyphosate-grown Achromobacter sp. strain LBAA according to the following procedure. Cells from a 100 ml culture of LBAA, grown in DF3S medium containing glucose, gluconate and citrate as carbon sources and with thiamine and Yeast Extract (0.01%) to supply trace requirements and with glyphosate at 0.2 mM as a phosphorous source, were harvested at a cell density of 200 Klett units, washed twice with 20 ml of DF3S medium and the equivalent of 20 ml of cells were resuspended in […] of the same medium containing [^14C]glyphosate (2.5 ml of 52 mCi/mmol, Amersham; CFA.745). The cell mix was incubated at 30° C. with shaking and 20 ml samples were withdrawn at various intervals. The samples were centrifuged to separate the cells from the broth supernatant. Both the supernatant and cell pellets were analyzed by HPLC.
Samples prepared in this way were analyzed by strong anion exchange (SAX) HPLC with radioisotope label detection to determine their levels of [^14C]-AMPA and N-acetyl-[^14C]-AMPA. Samples were injected using a Waters WISP autoinjector. Chromatographic profiles and quantitative data were collected using MACS2, Monsanto's automated chromatography data collection system. A Spherisorb S5 SAX, 250 mm×10 mm column, or an Alltech 5 micron, 250 mm×10 mm SAX column was used for the analyses. Solvents used were designated as solution A and solution B. Solution A contained 0.005M KH2PO4 adjusted to pH 2.0 with H3PO4 in 4% methanol. Solution B contained 0.10 M KH2PO4 adjusted to pH 2.0 with H3PO4 in 4% methanol. Each sample run time consisted of a step gradient program with an eluent flow rate of 3 ml per minute and a scintillation fluid (tradename ATOMFLOW, No. NEN-995 obtained from Packard Instruments) flow rate of 9 ml per minute. The HPLC solvent profile for distinguishing [^14C]-AMPA from N-acetyl-[^14C]-AMPA in each sample analyzed was represented by 100% solvent A at times zero through 5 minutes, then solvent B at 100% at time 5 minutes through 15 minutes, then 100% solvent A through 20 minutes at which time the column is prepared to receive another sample.
Cell pellets were first resuspended in DF3S medium made acidic by addition of 0.65N HCl, boiled for 5 minutes, then centrifuged briefly to provide a solution phase for HPLC analysis. Supernatants were treated similarly prior to HPLC analysis.
The GOX mediated glyphosate degradation pathway was elucidated further in a subsequent experiment where the metabolism of [^14C]AMPA was compared to that of [^14C]glyphosate as indicated above in resting cells harvested at 165 Klett units and resuspended at the equivalent of 15 ml cells per 100 ml DF3S medium. The samples were analyzed by HPLC and consisted of whole cultures acidified and treated as described above.

E. coli GB993 = experiment: Cell growth in MOPS medium with AMPA; type: cell-based; conditions: 0.2 mM AMPA, growth period 54 hrs
Description: The phn operon is induced when E. coli is grown in media lacking or limited in a phosphate source. Therefore, E. coli GB993 was compared to the parental JM101 strain when grown in MOPS minimal media. GB993 and its mpu− parent strain, JM101, were grown under identical conditions, varying only the amount of phosphate available or supplemented with AMPA. 50 ml cultures were grown in duplicate in 250 ml sidearm-Erlenmeyer flasks with continuous shaking at 37° C. in MOPS medium (5 mls of 10×MOPS salts, 0.5 ml 1 mg/ml thiamin, 0.5 ml 20% glucose, to 50 mls with dH2O) containing 0.1 or 5 mM phosphate, or 0.1 mM phosphate supplemented with approximately 0.2 mM AMPA, pH 7.0. The cultures were generally grown to about 220 Klett units and the cells were pelleted by centrifugation, resuspended in 1.5 mls of 10 mM Tris/1 mM DTT, and lysed with two passes through a French press at […]. Lysates were centrifuged to remove debris and the supernatant passed through a G-50 column equilibrated with 50 mM Tris pH 7.0.

[2] = test system: recombinant cotton line 3753 (EPSPS/GOX); experiment: [^14C]-glyphosate metabolism in cotton line 3753; type: in vivo, cotton (Gossypium hirsutum L.); conditions: EPSPS/GOX Plants
Description: The metabolism of [^14C]-glyphosate in recombinant cotton lines 4268 (GOX/PhnO) and 3753 (EPSPS/GOX) was also studied. Plants in this study were treated as indicated above for cotton line 4416, by applying droplets of ROUNDUP ULTRA fortified with [^14C]-glyphosate to a single leaf on each plant at the three to four leaf stage. Treated leaves were harvested and rinsed with water, then ground and extracted, and extracts were analyzed by HPLC as described above for the presence of [^14C]-glyphosate, [^14C]-AMPA, and N-acetyl-[^14C]-AMPA. New growth, including the meristem and new leaves that emerged following application were also extracted and analyzed.

[3] = [^14C]-glyphosate in growth medium exposed to light
Description: Growth medium to which [^14C]-glyphosate was added was treated to the same conditions as wheat plants, ie, the medium was exposed to incident light intensities which plants received.

[4] = whole cultures exposed two hours

For `NCP(=O)(O)O` [AMPA, N-aminomethyl phosphonic acid], the Germinating root length (Wheat immature embryos; 0.10 mM) was 8.0 ± 2.0 cm, the Germinating shoot length (Wheat immature embryos; 0.10 mM) was 11.7 ± 2.5 cm and the Germinating root length (Wheat immature embryos; 0.15 mM) was 6.3 ± 1.7 cm. It also gave a Germinating shoot length (Wheat immature embryos; 0.15 mM) of 11.3 ± 2.1 cm, a Germinating root length (Wheat immature embryos; 0.20 mM) of 4.6 ± 2.1 cm and a Germinating shoot length (Wheat immature embryos; 0.20 mM) of 9.2 ± 1.8 cm. The Germinating root length (Wheat immature embryos; 0.25 mM) was 3.1 ± 1.6 cm, the Germinating shoot length (Wheat immature embryos; 0.25 mM) was 8.5 ± 1.8 cm and the Germinating root length (Wheat immature embryos; 0.30 mM) was 2.6 ± 1.6 cm. The Germinating shoot length (Wheat immature embryos; 0.30 mM) was 6.6 ± 1.8 cm, the “germination of immature embryos” value (Wheat immature embryos; 1.00 mM) was “eliminated the germination” and the Germinating root length (Wheat immature embryos; 1.00 mM) was 0.4 ± 0.1 cm. The Germinating shoot length (Wheat immature embryos; 1.00 mM) was 0.9 ± 0.1 cm, the “concentrations not substantially inhibitory to growth and elongation of immature embryos” value (Wheat immature embryos; in vivo) was “under 0.2 mM” and the “concentrations severely inhibitory to both shoot and root elongation” value (Wheat immature embryos; in vivo) was “above 0.2 mM”. For the same compound, the “label as AMPA” value [1, 4] was 59%, the “label in the 13.2 minute peak (N-acetyl-AMPA)” value [1, 4] was 18% and the “label in the methylamine/N-acetyl-methylamine peak” value [1, 4] was 15%. For the same compound, the “Harvest Density” value (E. coli GB993) was 185 Klett Units.

In the case of N-phosphono-methyl-glycine [Glyphosate], the “glyphosate found within the cell” value ([1]; two hours incubation) is reported as “About 3%”, the “material co-eluting with the methylamine standard, of initial radioactivity in the cell contents” value ([1]; two hours incubation) is reported as “about 1.5%” and the “material co-eluting with the methylamine standard, of initial radioactivity in the supernatant” value ([1]; two hours incubation) is reported as “about 5%”. The “radioactivity in the glyphosate peak remaining in the supernatant, of the initial levels” value ([1]; two hours incubation) was “about 33%”, the “label as AMPA” value [1, 4] was 12.5% and the label as glyphosate [1, 4] was 30%. The “label in the 13.2 minute peak (N-acetyl-AMPA)” value [1, 4] was 30%, the “label in the methylamine/N-acetyl-methylamine peak” value [1, 4] was 25% and the “% [^14C] metabolite in New Growth Extract: N-Acetyl-AMPA” value [2] was 1.9%. For the same compound, the “% [^14C] metabolite in Glyphosate Treated Leaf Extract: AMPA” value ([2]; listed as [^14C]-Glyphosate) was 6-27%, the “% [^14C] metabolite in Glyphosate Treated Leaf Extract: Glyphosate” value ([2]; listed as [^14C]-Glyphosate) was 59.8% and 92.7% and 81.2% and 86.2% and the “% [^14C] metabolite in Glyphosate Treated Leaf Extract: N-Acetyl-AMPA” value ([2]; listed as [^14C]-Glyphosate) was 0.8% and 1.0%. The “% [^14C] metabolite in New Growth Extract: AMPA” value ([2]; listed as [^14C]-Glyphosate) was 72-86%, the “% [^14C] metabolite in New Growth Extract: Glyphosate” value ([2]; listed as [^14C]-Glyphosate) was 93% and the “Acetyl-[^14C]-AMPA, of summed [^14C] peaks” value [3] was 2% and 0% and 0.2%. The “[^14C]-Glyphosate, of summed [^14C] peaks” value ([3]; same light exposure as plants) was 48% and 87% and 60%.
